Data set [1] concerns tyrosine hydroxylase (TH) protein in the locus coeruleus (LC). As to the kind of experiment: Induction of tyrosine hydroxylase in the locus coeruleus after i.p. injection. Format: in vivo. The following applies: i.p. 20 mg/kg, three days after single injection, Balb/C mouse; for amount of TH in LC section 1, relative to the mean value of the control group: LC section 1 (anterior-to-posterior). The source says: A search is made among the compounds for those which are capable of bringing about an increase in the tyrosine hydroxylase (TH) protein in the locus coeruleus (LC) of the brain of the Balb/C mouse.
The animals used are male mice of the pure Balb/C strain (Charles River Laboratories) aged from 7 to 8 weeks at the time of treatment.
The mice are given a single injection, by the intraperitoneal route, of the compound under test, dissolved in 0.04M HCl solution (corresponding control: […]), if the compound is sufficiently soluble, or in olive oil 90%/DMSO 10% (corresponding control: olive oil 90%/DMSO 10%) for compounds that are insoluble in an aqueous medium.
Three days after the injection of each compound, all the animals are sacrificed by decapitation. The brains are removed and then frozen in liquid nitrogen and stored at −80° C.
Coronal sections 8 microns thick are taken along the posterior-anterior axis of the LC and fixed. The sections are transferred onto Immobilon-P membranes. The TH is measured by immunodetection and image analysis.

A short description of data set [2]: Predicted metabolic stability, mouse hepatic microsomes. The conditions noted are these: mouse hepatic microsomes 0.33 mg prot/ml; compound 10^-7 M; NADPH; 0-60 min. The format is in vitro ADME. The protocol:
(§1) The predicted metabolic stability is tested by incubation of the compounds at a concentration of 10^−7M in the presence of mouse, rat or human hepatic microsomes (0.33 mg of prot/ml). After addition of NADPH (nicotinamide adenine dinucleotide phosphate, reduced form), samples are taken at 0, 5, 15, 30 and 60 minutes. The enzymatic reaction is stopped using methanol (V/V). The protein is precipitated by centrifugation and the supernatant is analysed by LC-MS-MS.

The nature of data set [3]: Predicted metabolic stability, rat hepatic microsomes. Format: in vitro ADME. The following applies: rat hepatic microsomes 0.33 mg prot/ml; compound 10^-7 M; NADPH; 0-60 min. The protocol:
as §1

A short description of data set [4]: Predicted metabolic stability, human hepatic microsomes. Format: in vitro ADME. The conditions noted are these: human hepatic microsomes 0.33 mg prot/ml; compound 10^-7 M; NADPH; 0-60 min. The protocol: as §1
Data set [5] relates to confluent endothelial cells from bovine capillaries. The data set is described as follows: Predicted crossing of the blood-brain barrier (BBB). The conditions noted are these: 20 μM in upper compartment; filter with bovine capillary endothelial cells; 10-60 min. The format is in vitro ADME. Also on record: key: high; intermediate; low. On the procedure: The substances are incubated at 20 μM in the upper compartment of a double container, the upper compartment being separated from the lower compartment either solely by a polycarbonate filter or by the same filter covered with confluent endothelial cells from bovine capillaries. Evaluation of the permeability kinetics is carried out by means of LC-MS-MS quantification of the unchanged substance in the lower compartment after 10, 20, 30, 40 and 60 minutes.

Data set [6] concerns the target T1, ERK1 (Homo sapiens, UniProt P27361). As to the kind of experiment: Biacore direct interaction with recombinant ERK1. The format is binding. The source says:
(§2) Various forms of non-phosphorylated recombinant ERK (ERK1 and ERK2) and of phosphorylated recombinant ERK (p-ERK1 and p-ERK2) are fixed separately on “chips” and studied in the Biacore® system. The direct interaction of the compound of Example 1 at different concentrations is studied. • 2. Results

Data set [7] has as its target T2, ERK2 (Homo sapiens, UniProt P28482). The data set is described as follows: Biacore direct interaction with recombinant ERK2. The format is binding.
Excerpt: as §2

For data set [8], the target named is T1, ERK1. The data set is described as follows: ERK1 phosphorylation ex vivo in pig brain tissues. Format: biochemical. Set-up: host or cells: recombinant protein added to pig brain tissue preparations. The conditions noted are these: 3×10^-9 M. The source says: (§3) The various brain structures are isolated, treated and suspended in a medium without phosphate, after inactivation of the phosphatases of the tissues. The tissues are cleared of their own ERK and p-ERK and placed in the presence of specific recombinant forms of ERK1, ERK2, p-ERK1 and p-ERK2.
(§4) The phosphorylation capacities are studied in the presence and absence of the compound of Example 1 by means of antibodies that allow evaluation of non-phosphorylated and phosphorylated ERK1 and ERK2. • 2. Results

For data set [9], the target named is T2, ERK2. As to the kind of experiment: ERK2 phosphorylation ex vivo in pig brain tissues. Format: biochemical. Set-up: host or cells: recombinant protein added to pig brain tissue preparations. The conditions noted are these: 3×10^-9 M.
Excerpt: as §3, §4

Where [10] appears, read: pig brain prefrontal cortex ex vivo.

We go through 5 compounds from US20090176794A1, “1H-INDOL-1-YL-UREA COMPOUNDS” (LES LABORATOIRES SERVIER, priority 2008, published 2009).

T2 sequence (P28482 whole entry, species assumed): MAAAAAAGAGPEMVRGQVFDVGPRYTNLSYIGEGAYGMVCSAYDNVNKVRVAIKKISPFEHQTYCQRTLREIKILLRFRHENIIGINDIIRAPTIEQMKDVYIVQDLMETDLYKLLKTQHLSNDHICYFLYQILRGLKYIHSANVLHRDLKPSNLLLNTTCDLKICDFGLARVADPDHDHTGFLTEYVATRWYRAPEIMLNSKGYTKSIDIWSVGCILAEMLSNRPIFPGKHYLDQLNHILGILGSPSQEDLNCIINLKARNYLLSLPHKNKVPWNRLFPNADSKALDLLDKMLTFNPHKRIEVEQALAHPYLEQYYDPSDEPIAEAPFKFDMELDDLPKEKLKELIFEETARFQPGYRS
T1 sequence (P27361 whole entry, species assumed): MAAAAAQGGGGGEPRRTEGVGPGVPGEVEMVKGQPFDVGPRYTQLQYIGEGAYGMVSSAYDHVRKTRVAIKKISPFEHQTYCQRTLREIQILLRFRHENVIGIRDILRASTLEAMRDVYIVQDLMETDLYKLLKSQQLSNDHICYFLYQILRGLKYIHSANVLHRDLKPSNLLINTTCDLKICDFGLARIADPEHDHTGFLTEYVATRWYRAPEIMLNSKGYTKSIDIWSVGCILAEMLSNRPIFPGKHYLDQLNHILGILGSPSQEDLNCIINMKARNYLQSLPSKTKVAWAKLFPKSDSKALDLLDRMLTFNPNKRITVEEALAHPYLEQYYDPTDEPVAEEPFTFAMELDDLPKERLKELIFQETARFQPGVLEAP

In the case of `O=C(Nc1cccnc1)Nn1ccc2ccccc21` [Example 1, N-(1H-indol-1-yl)-N′-(3-pyridyl)urea], in data set [1], the “amount of TH in LC section 1, relative to the mean value of the control group” value was found to be 66%; the “amount of TH in LC section 2, relative to the mean value of the control group” value came out at 85%; the “amount of TH in LC section 3, relative to the mean value of the control group” value is given as 74%; the “amount of TH in LC section 4, relative to the mean value of the control group” value worked out at 64%. Further, in data set [1], the “amount of TH in LC section 5, relative to the mean value of the control group” value is on record as 45%; the “amount of TH in LC section 6, relative to the mean value of the control group” value is 40%; the “amount of TH in LC section 7, relative to the mean value of the control group” value amounted to 8%; the “amount of TH in LC section 8, relative to the mean value of the control group” value is 2%. Further, the “% metabolic stability predicted using hepatic microsomes, Mouse” value (from here on “% metabolic stability predicted … Mouse”) in data set [2] was 78%. Also, in [3], the “% metabolic stability predicted using hepatic microsomes, Rat” value (from here on “% metabolic stability predicted … Rat”) is 78%. The “% metabolic stability predicted using hepatic microsomes, Human” value (“% metabolic stability predicted … Human” below) in [4] is 72%. In addition, the “degree of crossing of the BBB (category)” value in data set [5] was “high”. The “binding to ERK1” value on ERK1 [6] (non-phosphorylated recombinant ERK1 on chip, different concentrations) is “binds strongly”. For the same compound, at ERK1 [6] (p-ERK1 added to the medium), the “binding to ERK1 when the corresponding phosphorylated ERK is added to the medium” value is reported as “inhibited”. For the same compound, the “binding to ERK2” value on ERK2 [7] (non-phosphorylated recombinant ERK2 on chip, different concentrations) is on record as “binds strongly”. Further, the “binding to ERK2 when the corresponding phosphorylated ERK is added to the medium” value at ERK2 [7] (p-ERK2 added to the medium) is reported as “inhibited”. The “phosphorylation of ERK1 in the hippocampus” value at ERK1 [8] (pig brain hippocampus ex vivo) is recorded as “increases”. In addition, at ERK1 [8] (setting [10]), the “phosphorylation of ERK1 in the prefrontal cortex” value was “increases”. Besides, on ERK2 [9] (pig brain hippocampus ex vivo), the “phosphorylation of ERK2 in the hippocampus” value is listed as “increases”. In addition, the “phosphorylation of ERK2 in the prefrontal cortex” value at ERK2 [9] (setting [10]) is reported as “increases”. Moreover, the “phosphorylation of ERK2 in the striatum” value at ERK2 [9] (pig brain striatum ex vivo) was “increases”.
Consider `O=C(Nc1cccnc1)NN1CCc2ccccc21` [Example 2, N-(2,3-dihydro-1H-indol-1-yl)-N′-(3-pyridyl)urea], for which, in data set [1], the “amount of TH in LC section 1, relative to the mean value of the control group” value stood at 63%; the “amount of TH in LC section 2, relative to the mean value of the control group” value amounted to 77%; the “amount of TH in LC section 3, relative to the mean value of the control group” value came out at 64%; the “amount of TH in LC section 4, relative to the mean value of the control group” value worked out at 57%. For the same compound, in data set [1], the “amount of TH in LC section 5, relative to the mean value of the control group” value worked out at 34%; the “amount of TH in LC section 6, relative to the mean value of the control group” value came out at 15%; the “amount of TH in LC section 7, relative to the mean value of the control group” value is 8%; the “amount of TH in LC section 8, relative to the mean value of the control group” value turned out to be 2%. Besides, in [2], the “% metabolic stability predicted … Mouse” value is 85%. Besides, the “% metabolic stability predicted … Rat” value in [3] was 55%. Also, the “% metabolic stability predicted … Human” value in data set [4] is recorded as 98%.
`O=C(Nc1ccncc1)Nn1ccc2ccccc21` [Example 6, N-(1H-indol-1-yl)-N′-(4-pyridyl)urea]: in data set [1], the “amount of TH in LC section 1, relative to the mean value of the control group” value was 65%; the “amount of TH in LC section 2, relative to the mean value of the control group” value is 81%; the “amount of TH in LC section 3, relative to the mean value of the control group” value was 59%; the “amount of TH in LC section 4, relative to the mean value of the control group” value stood at 33%. Also, in data set [1], the “amount of TH in LC section 5, relative to the mean value of the control group” value is listed as 20%; the “amount of TH in LC section 6, relative to the mean value of the control group” value is 13%; the “amount of TH in LC section 7, relative to the mean value of the control group” value came out at 8%; the “amount of TH in LC section 8, relative to the mean value of the control group” value was found to be 2%. Besides, in data set [2], the “% metabolic stability predicted … Mouse” value is 77%. Further, the “% metabolic stability predicted … Rat” value in data set [3] is reported as 73%. Also, the “% metabolic stability predicted … Human” value in [4] was 77%.
Regarding `O=C(Nc1ccncc1)Nn1ccc2cc(Cl)ccc21` [Example 13, N-(5-chloro-1H-indol-1-yl)-N′-(4-pyridyl)urea], the “% metabolic stability predicted … Mouse” value in data set [2] is on record as 84%. Further, in [3], the “% metabolic stability predicted … Rat” value was 89%. The “% metabolic stability predicted … Human” value in data set [4] is 82%.
Consider `O=C(NCc1ccccn1)Nn1ccc2ccccc21` [Example 24, N-(1H-indol-1-yl)-N′-(2-pyridylmethyl)urea], for which, in data set [1], the “amount of TH in LC section 1, relative to the mean value of the control group” value amounted to 74%; the “amount of TH in LC section 2, relative to the mean value of the control group” value is 78%; the “amount of TH in LC section 3, relative to the mean value of the control group” value was determined as 68%; the “amount of TH in LC section 4, relative to the mean value of the control group” value was 45%. In data set [1], the “amount of TH in LC section 5, relative to the mean value of the control group” value is on record as 29%; the “amount of TH in LC section 6, relative to the mean value of the control group” value is listed as 19%; the “amount of TH in LC section 7, relative to the mean value of the control group” value turned out to be 5%; the “amount of TH in LC section 8, relative to the mean value of the control group” value was found to be 7%. Moreover, the “% metabolic stability predicted … Mouse” value in [2] is 72%. Besides, in data set [3], the “% metabolic stability predicted … Rat” value was 69%. The “% metabolic stability predicted … Human” value in data set [4] is on record as 67%.
